Measurements as given in ChEMBL document CHEMBL1201862, “PubChem BioAssay data set” (2004).
Calls of active or inactive are those of the source.

Columns and labels:
INS1 [1] = experiment: protection from cytokine-induced mitochondrial depolarization, dose response, cell-based, INS-1E, JC-1 fluorescence ratio, dry powder (AID 488931); type: functional; settings: Rattus norvegicus
INS1 [2] = experiment: protection of INS-1E cells from cytokine death, dose response, ATP luminescence, dry powder (AID 488844); type: functional, cell-based; settings: Rattus norvegicus
INS1 [3] = experiment: protection from cytokine-driven beta-cell apoptosis, dose response, JC-1 fluorescence, INS-1E, dry powder, set 2 (AID 488867); type: functional, cell-based; settings: Rattus norvegicus
[4] = molecular target: Luciferin 4-monooxygenase (Photuris pensylvanica, UniProt Q27757); experiment: firefly luciferase enzyme inhibitors, dose response, counter-screen for HSF-1 reporter inhibitor project, biochemical, Cell Titer Glo, luminescence, cherry-picks (AID 588847)
Chain of Luciferin 4-monooxygenase (Q27757 whole entry): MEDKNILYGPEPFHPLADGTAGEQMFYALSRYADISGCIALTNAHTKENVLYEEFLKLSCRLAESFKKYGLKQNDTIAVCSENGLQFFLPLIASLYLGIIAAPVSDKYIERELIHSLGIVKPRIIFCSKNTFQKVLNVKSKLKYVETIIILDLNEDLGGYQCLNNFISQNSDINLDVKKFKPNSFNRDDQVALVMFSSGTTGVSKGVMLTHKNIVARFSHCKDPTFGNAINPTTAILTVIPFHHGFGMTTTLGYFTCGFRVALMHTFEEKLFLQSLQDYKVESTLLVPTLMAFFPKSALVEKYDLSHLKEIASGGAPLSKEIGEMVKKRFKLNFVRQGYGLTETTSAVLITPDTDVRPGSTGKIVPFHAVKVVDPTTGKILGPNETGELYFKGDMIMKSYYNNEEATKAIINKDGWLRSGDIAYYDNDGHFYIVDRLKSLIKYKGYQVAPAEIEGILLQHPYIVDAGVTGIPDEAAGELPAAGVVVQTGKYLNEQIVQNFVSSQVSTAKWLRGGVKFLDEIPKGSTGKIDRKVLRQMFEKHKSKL

[5] = Luminescence Cell-Based Dose Response HTS to Identify Inhibitors of 5'UTR Stem-Loop Driven Prion Protein mRNA Translation in H4 Neuroglioblastoma Cells. [Related pubchem assays: 1827 (Project Summary), 1813 (Primary HTS)]; type: functional
[6] = insulin promoter down-regulators in MIN6 cells, imaging, high-content screening, mouse beta cells (AID 1628); type: functional
[7] = inhibitors of firefly luciferase expression or activity, dose response, H4 neuroglioma cells, luminescence (AID 1990); type: functional, cell-based
[8] = cytotoxicity in MIN6 insulinoma cells, dose response, cytotoxicity control, cell-based, mouse insulinoma (AID 2122); type: functional;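 further: confirmatory high-throughput counterscreen run to flag cytotoxic compounds; mouse MIN-6 beta cells carrying an insulin promoter eGFP reporter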
[9] = inhibitors of SNCA 5'UTR-driven reporter translation, confirmation, H4 neuroglioma cells, luminescence (AID 1988); type: functional, cell-based
[10] = molecular target: T1, Sentrin-specific protease 7 (Homo sapiens, UniProt Q9BQF6); experiment: SENP7 protease inhibitors, SAR follow-up, biochemical, luminescence, set 2 (AID 588600); type: functional
T1 sequence (Q9BQF6 whole entry): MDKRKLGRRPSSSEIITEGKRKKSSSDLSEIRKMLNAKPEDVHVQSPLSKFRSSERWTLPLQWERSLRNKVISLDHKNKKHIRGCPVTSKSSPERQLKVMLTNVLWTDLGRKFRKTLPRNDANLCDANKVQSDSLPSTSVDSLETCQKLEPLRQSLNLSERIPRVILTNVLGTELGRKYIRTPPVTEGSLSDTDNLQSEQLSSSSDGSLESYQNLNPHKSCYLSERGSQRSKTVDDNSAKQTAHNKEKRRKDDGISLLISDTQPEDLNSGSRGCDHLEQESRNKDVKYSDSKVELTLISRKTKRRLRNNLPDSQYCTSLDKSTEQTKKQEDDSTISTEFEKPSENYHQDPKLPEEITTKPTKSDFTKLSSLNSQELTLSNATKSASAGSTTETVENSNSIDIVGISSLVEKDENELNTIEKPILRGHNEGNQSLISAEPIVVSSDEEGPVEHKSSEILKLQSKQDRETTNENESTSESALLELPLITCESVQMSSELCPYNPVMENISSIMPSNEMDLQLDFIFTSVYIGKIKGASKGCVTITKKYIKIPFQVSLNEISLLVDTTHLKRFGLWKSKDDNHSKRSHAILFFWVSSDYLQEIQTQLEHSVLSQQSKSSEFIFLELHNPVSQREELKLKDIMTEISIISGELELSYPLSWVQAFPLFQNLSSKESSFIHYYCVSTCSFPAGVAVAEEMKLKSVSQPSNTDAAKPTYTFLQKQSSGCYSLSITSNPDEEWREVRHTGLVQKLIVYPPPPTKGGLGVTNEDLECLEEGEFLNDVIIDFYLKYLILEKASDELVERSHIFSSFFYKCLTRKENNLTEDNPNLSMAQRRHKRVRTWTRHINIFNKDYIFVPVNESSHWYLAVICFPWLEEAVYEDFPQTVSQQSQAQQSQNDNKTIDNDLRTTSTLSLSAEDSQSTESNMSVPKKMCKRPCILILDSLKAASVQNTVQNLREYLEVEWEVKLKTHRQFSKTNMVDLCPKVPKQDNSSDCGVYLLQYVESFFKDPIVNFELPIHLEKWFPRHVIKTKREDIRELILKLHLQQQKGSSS

[11] = molecular target: T2, Sentrin-specific protease 6 (Homo sapiens, UniProt Q9GZR1); experiment: SENP6 protease inhibitors, SAR follow-up, biochemical, luminescence, set 2 (AID 588598); type: functional
T2 sequence (Q9GZR1 whole entry): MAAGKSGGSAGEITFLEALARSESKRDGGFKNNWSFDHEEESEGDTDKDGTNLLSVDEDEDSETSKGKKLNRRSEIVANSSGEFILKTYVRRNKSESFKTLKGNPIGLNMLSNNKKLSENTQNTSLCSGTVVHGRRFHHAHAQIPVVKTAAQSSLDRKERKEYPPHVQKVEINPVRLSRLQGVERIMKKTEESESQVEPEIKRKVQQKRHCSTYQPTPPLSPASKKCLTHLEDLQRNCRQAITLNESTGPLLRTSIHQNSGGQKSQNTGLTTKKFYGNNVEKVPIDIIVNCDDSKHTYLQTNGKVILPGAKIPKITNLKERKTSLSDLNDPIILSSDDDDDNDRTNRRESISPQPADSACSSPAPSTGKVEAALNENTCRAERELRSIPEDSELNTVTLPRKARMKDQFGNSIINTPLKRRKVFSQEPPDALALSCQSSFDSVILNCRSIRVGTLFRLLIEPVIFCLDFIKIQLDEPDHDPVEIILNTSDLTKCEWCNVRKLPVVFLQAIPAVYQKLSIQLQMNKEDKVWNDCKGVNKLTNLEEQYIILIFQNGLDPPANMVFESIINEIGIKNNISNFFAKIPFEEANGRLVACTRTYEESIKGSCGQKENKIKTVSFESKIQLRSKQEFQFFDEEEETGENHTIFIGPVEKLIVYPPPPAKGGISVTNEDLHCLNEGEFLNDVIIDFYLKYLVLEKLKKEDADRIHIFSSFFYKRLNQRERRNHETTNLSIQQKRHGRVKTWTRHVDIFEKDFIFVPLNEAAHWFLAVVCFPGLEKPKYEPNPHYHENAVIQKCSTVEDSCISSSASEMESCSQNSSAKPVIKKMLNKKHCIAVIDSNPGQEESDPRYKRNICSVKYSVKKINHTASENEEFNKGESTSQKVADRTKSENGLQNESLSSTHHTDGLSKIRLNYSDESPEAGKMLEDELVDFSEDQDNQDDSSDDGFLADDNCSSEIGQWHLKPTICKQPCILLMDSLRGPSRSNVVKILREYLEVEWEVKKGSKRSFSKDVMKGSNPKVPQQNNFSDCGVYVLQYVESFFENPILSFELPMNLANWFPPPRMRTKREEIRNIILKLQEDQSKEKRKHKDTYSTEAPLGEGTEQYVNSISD

[12] = molecular target: T3, Sentrin-specific protease 8 (Homo sapiens, UniProt Q96LD8); experiment: SENP8 protease inhibitors, SAR follow-up, biochemical, luminescence, set 2 (AID 588601); type: functional
T3 sequence (Q96LD8 whole entry): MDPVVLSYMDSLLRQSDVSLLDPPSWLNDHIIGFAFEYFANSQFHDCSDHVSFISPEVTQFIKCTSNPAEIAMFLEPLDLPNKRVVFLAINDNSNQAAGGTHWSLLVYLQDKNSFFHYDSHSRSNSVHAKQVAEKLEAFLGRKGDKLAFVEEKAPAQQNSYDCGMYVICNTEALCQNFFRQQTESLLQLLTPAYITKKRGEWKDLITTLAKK

Caspase-3 = molecular target: T4, Caspase-3 (Homo sapiens, UniProt P42574); experiment: caspase-3 inhibitors as off-family protease, SAR follow-up, selectivity assay for SENP protease inhibitor project, biochemical, luminescence, set 2 (AID 588599); type: functional
T4 sequence (P42574 whole entry): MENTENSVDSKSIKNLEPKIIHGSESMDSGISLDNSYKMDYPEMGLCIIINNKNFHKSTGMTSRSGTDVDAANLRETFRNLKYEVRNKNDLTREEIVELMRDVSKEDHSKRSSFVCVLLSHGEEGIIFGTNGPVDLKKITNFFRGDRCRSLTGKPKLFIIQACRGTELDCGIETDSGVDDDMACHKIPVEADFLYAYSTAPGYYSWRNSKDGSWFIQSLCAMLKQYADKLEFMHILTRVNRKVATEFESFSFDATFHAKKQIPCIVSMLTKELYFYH

What does the source list for `COc1ccc(S(=O)(=O)N(C)C[C@@H]2Oc3c(NC(=O)Nc4ccccc4)cccc3C(=O)N([C@H](C)CO)C[C@H]2C)cc1`?
AC50 (INS1 [1]): > 195 µM (inactive); AC50 (INS1 [2]): 22.8 µM (active); AC50 (INS1 [3]): > 260 µM (inactive)

Which AC50 [4] does the source give for `C[C@@H]1C[C@H]2[C@@H]3CCC4=CC(=O)C=C[C@]4(C)[C@@]3(F)[C@@H](O)C[C@]2(C)[C@@]1(O)C(=O)CO` [DEXAMETHASONE] here?
The AC50 was > 52 µM (inactive).

What about the EC50 [5] of the same molecule?
Its EC50 is > 120 µM (not active).

And the IC50 [6]?
Its IC50 is < 0.25 µM (active).

And the EC50 [7]?
The EC50 was > 120 µM (not active).

And the IC50 [8]?
Its IC50 is > 16 µM (inactive).

And the EC50 [9]?
The EC50 was > 120 µM (not active).

What does the source list for `CS(=O)(=O)c1ccc2nc(NC(=O)c3ccc(OC(F)(F)F)cc3)sc2c1`?
IC50 [10]: > 99 µM (inactive); IC50 [11]: > 99 µM (inactive); IC50 [12]: > 99 µM (inactive); IC50 (Caspase-3): > 99 µM (inactive)
